Test results published in US20240173432A1, “Compositions and Methods for Treatment of Myotonic Dystrophy Type 1 with CRISPR/SluCas9” (Vertex Pharmaceuticals Incorporated, priority 2021, published 2024).

What was measured:
[1] = tested on: CUG foci in primary DM1 patient myoblasts; assay: Dual-cut screening: FISH staining of CUG RNA foci; assay type: cell-based, human; conditions: sgRNAs working with partner(s) or alone
In short: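 SluCas9 RNPs (protein:sgRNA 1:3; 20 pmol SluCas9 + 60 pmol sgRNA per guide, paired 1:1) nucleofected into primary DM1 patient myoblasts, then DMSO or 3 μM DNA-PKi Compound 6 for 48 h. At 72 h post-nucleofection cells fixed, FISH-stained with Cy3-PNA(CAG)5 probe plus anti-MBNL1 and Hoechst; % CUG foci-free nuclei by high-content confocal imaging.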

[2] = tested on: CAG foci in primary DM1 patient myoblasts; assay: Single-cut screening: CAG foci staining; assay type: cell-based, human; conditions: single sgRNA; for % of CAG foci positive nuclei (DNA-PKi): DNA-PKi treated
In short: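 Primary DM1 patient myoblasts were PFA-fixed and hybridized with […] (1 ng/μL, 15 min at 80° C) in 30% formamide/2×SSC, followed by anti-MBNL1 immunostaining and Hoechst counterstain. CAG RNA foci were quantified by high-content confocal imaging after single-cut SuCas9 sgRNA editing.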

Substance	RNA foci reduction efficiency [1]	% of CAG foci positive nuclei (DNA-PKi) [2] [%]	% of CAG foci positive nuclei (Vehicle) [2] [%]
ggggcTCGAAGGGTCCTTGTAG (as printed in the source, key not given here) [SluU63]	exceptionally high RNA foci reduction efficiency	5.49	3.29
GCCCCGTTGGAAGACTGAGTGC (listed as DNA, chemistry not fully specified) [SluU08]	exceptionally high RNA foci reduction efficiency	1.61	2.21
ATGGGCAAACTGCAGGCCTGGG (listed as DNA, chemistry not fully specified) [SluD14]	exceptionally high RNA foci reduction efficiency	3.96	6.7
gggcTCGAAGGGTCCTTGTAGC (as printed in the source, key not given here) [SluU64]	exceptionally high RNA foci reduction efficiency	2.58	1.23
